From ChEMBL document CHEMBL4808169, “Discovery of Potent and Fast-Acting Antimalarial Bis-1,2,4-triazines” (J Med Chem, 2021)

Assays:
[1] = Kinetic solubility of compound at pH 2 by nephelometry; format: physicochemical; settings: buffer, read-out: Kinetic_solubility
[2] = Efflux ratio of apparent permeability in human Caco2 cells measured over 120 mins by LC-MS analysis; format: ADME, cell-based; settings: Caco-2
Cytochrome P450 1A2 = target: T1, Cytochrome P450 1A2 (Homo sapiens, UniProt P05177); assay: Inhibition of CYP1A2 in human liver microsomes assessed as reduction in […] activity by . high-pressure liquid chromatography-tandem mass spectrometry; format: ADME
T1 sequence (P05177 whole entry): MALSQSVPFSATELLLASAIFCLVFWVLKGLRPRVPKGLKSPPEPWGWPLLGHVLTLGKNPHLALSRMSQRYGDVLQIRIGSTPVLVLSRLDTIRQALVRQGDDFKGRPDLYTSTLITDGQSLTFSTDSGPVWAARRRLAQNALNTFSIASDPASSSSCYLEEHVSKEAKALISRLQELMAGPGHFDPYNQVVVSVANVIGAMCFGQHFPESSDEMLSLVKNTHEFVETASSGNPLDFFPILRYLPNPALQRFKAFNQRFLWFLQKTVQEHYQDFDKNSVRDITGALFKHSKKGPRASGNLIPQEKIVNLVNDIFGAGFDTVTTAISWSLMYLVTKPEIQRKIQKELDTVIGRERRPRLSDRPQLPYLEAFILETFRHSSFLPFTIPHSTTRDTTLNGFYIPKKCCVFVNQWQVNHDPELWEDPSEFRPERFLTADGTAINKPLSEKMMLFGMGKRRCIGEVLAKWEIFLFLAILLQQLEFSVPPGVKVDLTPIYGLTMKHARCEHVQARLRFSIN

Cytochrome P450 2D6 = Cytochrome P450 2D6 (Homo sapiens, UniProt P10635); assay: Inhibition of CYP2D6 in human liver microsomes assessed as reduction in […] activity by . high-pressure liquid chromatography-tandem mass spectrometry; format: ADME
Cytochrome P450 3A4 = Cytochrome P450 3A4 (Homo sapiens, UniProt P08684); assay: Inhibition of CYP3A4 in human liver microsomes assessed as reduction in testosterone 6beta-hydroxylation activity by high-pressure liquid chromatography-tandem mass spectrometry; format: ADME
[3] = Drug metabolism in human liver microsomes assessed as N-methyl-2-(3'-propoxy-5,5'-bi(1,2,4-triazin)-3-yloxy)ethanamine formation by LC-MS/MS(CID) analysis; format: ADME, Microsome
[4] = Drug metabolism in mouse liver microsomes assessed as N-methyl-2-(3'-propoxy-5,5'-bi(1,2,4-triazin)-3-yloxy)ethanamine formation by LC-MS/MS(CID) analysis; format: ADME, Microsome
[5] = Drug metabolism in human liver microsomes assessed as formation of cleavage product M-69 in presence of NADPH by LC-MS/MS(CID) analysis; format: ADME, Microsome
[6] = Drug metabolism in rat liver microsomes assessed as formation of cleavage product M-69 in presence of NADPH by LC-MS/MS(CID) analysis; format: ADME, Microsome
HEK293 = assay: Cytotoxicity against HEK293 cells incubated for 24 hrs by MTT assay; format: cell-based; settings: Homo sapiens, HEK293, 24 h
[7] = Cmax in Swiss mouse plasma at 27 mg/kg, po measured up to 24 hrs by LC-MS analysis; format: ADME, organism-based; set-up: route oral, dose 27 mg/kg, time <=24
[8] = Tmax in Swiss mouse at 27 mg/kg, po measured up to 24 hrs by LC-MS analysis; format: ADME, organism-based; settings: in vivo
[9] = AUC (0 to infinity) in Swiss mouse plasma at 2.7 mg/kg, iv measured up to 24 hrs; format: ADME, organism-based; set-up: route intravenous, dose 2.7 mg/kg, time <=24
[10] = Apparent half life in Sprague-Dawley rat at 3 mg/kg administered as iv infusion for 10 mins measured up to 24 hrs by LC-MS analysis; format: ADME, organism-based; settings: in vivo
[11] = Oral availability in Sprague-Dawley rat at 10 mg/kg measured up to 24 hrs by LC-MS analysis; format: ADME, organism-based; settings: in vivo
[12] = Drug excretion in Sprague-Dawley rat urine 3 mg/kg, iv measured up to 24 hrs by LC-MS analysis; format: ADME, organism-based; settings: read-out: Drug excretion
[13] = Drug metabolism in Sprague-Dawley rat urine assessed as oxygenated metabolite N-methyl-2-(3'-propoxy-5,5'-bi(1,2,4-triazin)-3-yloxy)ethanamine oxide formation at 3 mg/kg, iv by high-resolution mass spectrometry; format: ADME, organism-based; settings: in vivo
[14] = Drug metabolism in Sprague-Dawley rat urine assessed as M-32 metabolite formation at 3 mg/kg, iv by high-resolution mass spectrometry; format: ADME, organism-based; settings: in vivo
[15] = Drug metabolism in Sprague-Dawley rat feces assessed as oxygenated metabolite M+16(2) formation at 10 mg/kg, po by high-resolution mass spectrometry; format: ADME, organism-based; settings: in vivo
[16] = Drug metabolism in Sprague-Dawley rat feces assessed as oxygenated metabolite M+16(2) formation at 3 mg/kg, iv by high-resolution mass spectrometry; format: ADME, organism-based; settings: in vivo
[17] = Drug metabolism in Sprague-Dawley rat feces assessed as oxygenated metabolite N-methyl-2-(3'-propoxy-5,5'-bi(1,2,4-triazin)-3-yloxy)ethanamine oxide formation at 10 mg/kg, po by high-resolution mass spectrometry; format: ADME, organism-based; settings: in vivo
[18] = Drug metabolism in Sprague-Dawley rat feces assessed as N-methyl-2-(3'-propoxy-5,5'-bi(1,2,4-triazin)-3-yloxy)ethanamine formation at 10 mg/kg, po by high-resolution mass spectrometry; format: ADME, organism-based; settings: in vivo
[19] = Drug concentration in blood of NOD-SCID 1L2Rgamma mouse infected with Plasmodium falciparum 3D70087/N9 at 50 mg/kg, po measured after 6 hrs by LC-MS/MS analysis; format: ADME, organism-based; settings: read-out: Drug uptake
[20] = Drug metabolism in rat liver microsomes assessed as oxygenated metabolite M+16(2) formation by LC-MS/MS(CID) analysis; format: ADME, Microsome
[21] = Drug metabolism in human hepatocytes assessed as oxygenated metabolite M+16(1) formation by LC-MS/MS(CID) analysis; format: ADME, cell-based, Hepatocyte
[22] = Drug metabolism in human hepatocytes assessed as oxygenated metabolite M+16(2) formation by LC-MS/MS(CID) analysis; format: ADME, cell-based, Hepatocyte
[23] = Drug metabolism in mouse hepatocytes assessed as oxygenated metabolite M+16(2) formation by LC-MS/MS(CID) analysis; format: ADME, cell-based, Hepatocyte
[24] = Drug metabolism in rat hepatocytes assessed as oxygenated metabolite N-methyl-2-(3'-propoxy-5,5'-bi(1,2,4-triazin)-3-yloxy)ethanamine oxide formation by LC-MS/MS(CID) analysis; format: ADME, cell-based, Hepatocyte
[25] = Drug metabolism in rat hepatocytes assessed as N-methyl-2-(3'-propoxy-5,5'-bi(1,2,4-triazin)-3-yloxy)ethanamine formation by LC-MS/MS(CID) analysis; format: ADME, cell-based, Hepatocyte
[26] = Drug metabolism in rat hepatocytes assessed as 3'-propoxy-5,5'-bi(1,2,4-triazin)-3-ol formation by LC-MS/MS(CID) analysis; format: ADME, cell-based, Hepatocyte
[27] = Drug metabolism in human hepatocytes assessed as glucuronides/sulfates metabolite formation by LC-MS/MS(CID) analysis; format: ADME, cell-based, Hepatocyte
[28] = Apparent half life in Swiss mouse at 27 mg/kg, po measured up to 24 hrs by LC-MS analysis; settings: in vivo, read-out: t1/2(app) (converted)
[29] = AUC (0 to infinity) in Swiss mouse plasma at 2.8 mg/kg, po measured up to 24 hrs by LC-MS analysis

Cytochrome P450 2D6, sequence (P10635 whole entry): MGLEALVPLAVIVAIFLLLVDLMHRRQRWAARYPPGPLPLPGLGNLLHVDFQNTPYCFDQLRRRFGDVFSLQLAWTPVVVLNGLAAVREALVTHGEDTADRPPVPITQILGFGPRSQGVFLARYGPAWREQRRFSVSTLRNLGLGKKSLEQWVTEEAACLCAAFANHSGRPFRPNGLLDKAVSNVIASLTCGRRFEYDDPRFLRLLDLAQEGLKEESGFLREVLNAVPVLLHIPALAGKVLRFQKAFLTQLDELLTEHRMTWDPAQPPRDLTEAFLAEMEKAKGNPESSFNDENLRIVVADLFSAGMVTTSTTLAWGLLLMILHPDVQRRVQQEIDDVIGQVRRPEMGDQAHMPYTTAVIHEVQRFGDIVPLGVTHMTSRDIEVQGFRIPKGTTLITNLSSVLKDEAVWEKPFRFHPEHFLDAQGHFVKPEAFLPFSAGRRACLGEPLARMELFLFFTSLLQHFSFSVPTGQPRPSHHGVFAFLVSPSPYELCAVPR
Cytochrome P450 3A4, sequence (P08684 whole entry): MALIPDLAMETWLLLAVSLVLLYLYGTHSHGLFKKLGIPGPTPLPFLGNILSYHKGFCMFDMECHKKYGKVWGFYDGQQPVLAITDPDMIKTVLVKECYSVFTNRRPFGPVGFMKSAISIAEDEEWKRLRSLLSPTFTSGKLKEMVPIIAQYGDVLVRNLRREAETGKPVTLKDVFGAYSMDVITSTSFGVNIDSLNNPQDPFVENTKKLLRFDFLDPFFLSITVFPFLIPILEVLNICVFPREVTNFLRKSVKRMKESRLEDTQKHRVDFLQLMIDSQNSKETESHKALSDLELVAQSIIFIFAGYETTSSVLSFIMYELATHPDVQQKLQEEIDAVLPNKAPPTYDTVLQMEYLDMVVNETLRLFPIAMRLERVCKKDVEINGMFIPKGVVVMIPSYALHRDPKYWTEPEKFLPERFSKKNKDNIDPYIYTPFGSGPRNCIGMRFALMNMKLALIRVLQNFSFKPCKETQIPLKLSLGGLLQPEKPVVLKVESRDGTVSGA

Q: With `CCCOc1nncc(-c2cnnc(OCCN(C)C)n2)n1` as the molecule, how does the solubility kinetic [1] read?
A: > 100 µg/mL

Q: And the efflux ratio at 2 h [2]?
A: 1.1

Q: What about the IC50 (Cytochrome P450 1A2) of the same molecule?
A: > 20 µM

Q: And the IC50 (Cytochrome P450 2D6)?
A: > 20 µM

Q: What about the IC50 (Cytochrome P450 3A4) of the same molecule?
A: > 20 µM

Q: And the Drug metabolism [3]?
A: Metabolite_Notdetected

Q: What about the Drug metabolism [4] of the same molecule?
A: Metabolite_Detected

Q: What about the Drug metabolism [5] of the same molecule?
A: Metabolite_Detected

Q: And the Drug metabolism [6]?
A: Metabolite_Detected

Q: And the EC50 (HEK293)?
A: 36 µM

Q: What about the Cmax [7] of the same molecule?
A: 82 nM

Q: What about the Tmax [8] of the same molecule?
A: 1 h

Q: What about the AUC(0-inf) [9] of the same molecule?
A: 0.36 µM·h

Q: What about the half-life [10] of the same molecule?
A: 0.39 h

Q: And the bioavailability [11]?
A: 7.49%

Q: What about the dose excreted at 24 h [12] of the same molecule?
A: < 3%

Q: What about the Drug metabolism [13] of the same molecule?
A: Metabolite_Detected

Q: What about the Drug metabolism [14] of the same molecule?
A: Metabolite_Detected

Q: What about the Drug metabolism [15] of the same molecule?
A: Metabolite_Detected

Q: What about the Drug metabolism [16] of the same molecule?
A: Metabolite_Detected

Q: And the Drug metabolism [17]?
A: Metabolite_Detected

Q: What about the Drug metabolism [18] of the same molecule?
A: Metabolite_Detected

Q: And the concentration at 6 h [19]?
A: 150 ng/mL

Q: What about the Drug metabolism [20] of the same molecule?
A: Metabolite_Detected

Q: And the Drug metabolism [21]?
A: Metabolite_Detected

Q: What about the Drug metabolism [22] of the same molecule?
A: Metabolite_Detected

Q: What about the Drug metabolism [23] of the same molecule?
A: Metabolite_Detected

Q: What about the Drug metabolism [24] of the same molecule?
A: Metabolite_Detected

Q: And the Drug metabolism [25]?
A: Metabolite_Detected

Q: What about the Drug metabolism [26] of the same molecule?
A: Metabolite_Detected

Q: And the Drug metabolism [27]?
A: Metabolite_Notdetected

Q: And the half-life [28]?
A: 3 h

Q: And the AUC(0-inf) [29]?
A: 0.038 µM·h
